Structures are written as SMILES.

In this assay the target is Carbonic anhydrase 2 (Homo sapiens, UniProt P00918). Put plainly: Inhibition Assay. The conditions noted are these: pH 8.4. The procedure:
Inhibitory activity of the compounds for CAII was measured and IC50 values were calculated from independent triplicated experiments. Kd values were obtained by ITC analysis.
Usually IC50 stands for the concentration at which inhibition is half-maximal. Read a low IC50 as higher potency. One may read the Kd as the free concentration of one partner at which half of the binding sites on the other are occupied at equilibrium, for simple one-to-one binding. The compound `NS(=O)(=O)c1ccc(F)cc1` [4-Fuloro sulfonamide, C] displayed an IC50 of 203 nM and a Kd of 435 nM.

The compound `NS(=O)(=O)c1ccc(N2CCN(Cc3ccncc3)CC2)cc1` [Piperazine moiety, 3] displayed an IC50 of 48 nM and a dissociation constant (Kd) of 29 nM.

Compound `NS(=O)(=O)c1ccc(N2CCNCC2)cc1` [Piperazine moiety, 4] yielded an IC50 of 299 nM and a Kd of 426 nM.

Turning to `NS(=O)(=O)c1ccc(N2CCN(CCO)CC2)cc1` [Piperazine moiety, 5], the IC50 was found to be 137 nM and binding was put at a Kd of 208 nM.

`NS(=O)(=O)c1ccc(N2CCN(C(=O)c3ccncc3)CC2)cc1` [Piperazine moiety, 6] gave a 50% inhibitory concentration (IC50) of 72 nM and a Kd of 100 nM.

For the origin of these results see BindingDB's records for doi:10.1002/cbic.200800704 (Antibiotics Laboratory, 2009).
